Laboratory results: patent publication US9890155B2, “Aza-oxo-indoles for the treatment and prophylaxis of respiratory syncytial virus infection” (Hoffmann-La Roche Inc., priority 2013, dated 2018)
pEC50: −log10 of the molar value.

System: RSV Long strain
Test: Viral Cytopathic Effect (CPE) Assay
Format: cell-based
Settings: human respiratory syncytial virus, 144 h, cell viability after 6 days (Cell Counting kit-8)
Experimental: EC50: the concentration of a compound where 50% of its maximal protection effect against viral induced CPE is observed
LongStrain: an A subtype RSV strain obtained from ATCC with catalog number VR-26
To measure anti-RSV activity of compounds, 96-well plates are seeded with 6×10^3 cells per well in Dulbecco's modified Eagle's medium (DMEM) containing 10% fetal bovine serum (FBS). Cells are infected the next day with sufficient RSV Long strain (ATCC) to produce an approximately 80-90% cytopathic effect after 6 days, in the presence of serial half-log diluted compound in a total volume of 200 μL per well. The viability of cells is assessed after 6 days using Cell Counting kit-8 (Dojindo Molecular Technologies). The absorbance at 450 nm and referenced at 630 nm is measured to determine 50% effective concentration (EC50).

Row | Molecule | pEC50
1 | N#Cc1ccc(-n2c(CN3C(=O)C4(CC4)c4ccncc43)nc3cc(Cl)ccc32)cn1 [Example 1, 5-{5-Chloro-2-[(2′-oxospiro[cyclopropane-1,3′-pyrrolo[2,3-c]pyridin]-1′(2′H)-yl)methyl]-1H-benzimidazol-1-yl}pyridine-2-carbonitrile] | 9.15
2 | CS(=O)(=O)c1cc(-n2c(CN3C(=O)C4(CC4)c4ccncc43)nc3cc(Cl)ccc32)ccn1 [Example 2-1, 1′-({5-Chloro-1-[2-(methylsulfonyl)pyridin-4-yl]-1H-benzimidazol-2-yl}methyl)spiro[cyclopropane-1,3′-pyrrolo[2,3-c]pyridin]-2′(1′H)-one] | 7.19
3 | CCS(=O)(=O)c1ccnc(-n2c(CN3C(=O)C4(CC4)c4ccncc43)nc3cc(Cl)ccc32)c1 [Example 2-2, 1′-({5-Chloro-1-[4-(ethylsulfonyl)pyridin-2-yl]-1H-benzimidazol-2-yl}methyl)spiro[cyclopropane-1,3′-pyrrolo[2,3-c]pyridin]-2′(1′H)-one] | 7.68
4 | CCOC(=O)Cc1ccc(-n2c(CN3C(=O)C4(CC4)c4ccncc43)nc3cc(Cl)ccc32)cc1 [Example 3, Ethyl(4-{5-chloro-2-[(2′-oxospiro[cyclopropane-1,3′-pyrrolo[2,3-c]pyridin]-1′(2′H)-yl)methyl]-1H-benzimidazol-1-yl}phenyl)acetate] | 7.85
5 | O=C1N(Cc2nc3cc(Cl)ccc3n2-c2ccccc2)c2cnccc2C12CC2 [Example 4-1, 1′-[(5-Chloro-1-phenyl-1H-benzimidazol-2-yl)methyl]spiro[cyclopropane-1,3′-pyrrolo[2,3-c]pyridin]-2′(1′H)-one] | 7.77
6 | CCOC(=O)c1ccc(-n2c(CN3C(=O)C4(CC4)c4ccncc43)nc3cc(Cl)ccc32)cc1 [Example 4-2, Ethyl 4-{5-chloro-2-[(2′-oxospiro[cyclopropane-1,3′-pyrrolo[2,3-c]pyridin]-1′(2′H)-yl)methyl]-1H-benzimidazol-1-yl}benzoate] | 8.22
7 | CS(=O)(=O)c1ccc(-n2c(CN3C(=O)C4(CC4)c4ccncc43)nc3cc(Cl)ccc32)cn1 [Example 4-3, 1′-({5-Chloro-1-[6-(methylsulfonyl)pyridin-3-yl]-1H-benzimidazol-2-yl}methyl)spiro[cyclopropane-1,3′-pyrrolo[2,3-c]pyridin]-2′(1′H)-one] | 8.40
8 | CS(=O)(=O)c1cccc(-n2c(CN3C(=O)C4(CC4)c4ccncc43)nc3cc(Cl)ccc32)c1 [Example 4-4, 1′-({5-chloro-1-[3-(methylsulfonyl)phenyl]-1H-benzimidazol-2-yl}methyl)spiro[cyclopropane-1,3′-pyrrolo[2,3-c]pyridin]-2′(1′H)-one] | 8.10
9 | CS(=O)(=O)c1ccc(-n2c(CN3C(=O)C4(CC4)c4ccncc43)nc3cc(Cl)ccc32)cc1 [Example 4-5, 1′-({5-Chloro-1-[4-(methylsulfonyl)phenyl]-1H-benzimidazol-2-yl}methyl)spiro[cyclopropane-1,3′-pyrrolo[2,3-c]pyridin]-2′(1′H)-one] | 8.30
10 | COC(=O)c1cccc(-n2c(CN3C(=O)C4(CC4)c4ccncc43)nc3cc(Cl)ccc32)c1 [Example 4-6, Methyl 3-{5-chloro-2-[(2′-oxospiro[cyclopropane-1,3′-pyrrolo[2,3-c]pyridin]-1′(2′H)-yl)methyl]-1H-benzimidazol-1-yl}benzoate] | 7.80
11 | N#Cc1cccc(-n2c(CN3C(=O)C4(CC4)c4ccncc43)nc3cc(Cl)ccc32)c1 [Example 4-7, 3-{5-Chloro-2-[(2′-oxospiro[cyclopropane-1,3′-pyrrolo[2,3-c]pyridin]-1′(2′H)-yl)methyl]-1H-benzimidazol-1-yl}benzonitrile] | 8.15
12 | CC(=O)c1cccc(-n2c(CN3C(=O)C4(CC4)c4ccncc43)nc3cc(Cl)ccc32)c1 [Example 4-8, 1′-{[1-(3-Acetylphenyl)-5-chloro-1H-benzimidazol-2-yl]methyl}spiro[cyclopropane-1,3′-pyrrolo[2,3-c]pyridin]-2′(1′H)-one] | 7.72
13 | COc1ccc(-n2c(CN3C(=O)C4(CC4)c4ccncc43)nc3cc(Cl)ccc32)cn1 [Example 4-9, 1′-{[5-Chloro-1-(6-methoxypyridin-3-yl)-1H-benzimidazol-2-yl]methyl}spiro[cyclopropane-1,3′-pyrrolo[2,3-c]pyridin]-2′(1′H)-one] | 7.96
14 | NC(=O)c1ccc(-n2c(CN3C(=O)C4(CC4)c4ccncc43)nc3cc(Cl)ccc32)cc1 [Example 7, 4-{5-Chloro-2-[(2′-oxospiro[cyclopropane-1,3′-pyrrolo[2,3-c]pyridin]-1′(2′H)-yl)methyl]-1H-benzimidazol-1-yl}benzamide] | 7.89
15 | O=C1N(Cc2nc3cc(Cl)ccc3n2-c2ccc(O)nc2)c2cnccc2C12CC2 [Example 8, 1′-{[5-Chloro-1-(6-hydroxypyridin-3-yl)-1H-benzimidazol-2-yl]methyl}spiro[cyclopropane-1,3′-pyrrolo[2,3-c]pyridin]-2′(1′H)-one] | 7.74

Next, values leading:

Row | pEC50 | Molecule
16 | 8.30 | CS(=O)(=O)c1cncc(-n2c(CN3C(=O)C4(CC4)c4ccncc43)nc3cc(Cl)ccc32)c1 [Example 5-1, 1′-({5-Chloro-1-[5-(methylsulfonyl)pyridin-3-yl]-1H-benzimidazol-2-yl}methyl)spiro[cyclopropane-1,3′-pyrrolo[2,3-c]pyridin]-2′(1H)-one]
17 | 8.30 | CS(=O)(=O)c1cccc(-n2c(CN3C(=O)C4(CC4)c4ccncc43)nc3cc(Cl)ccc32)n1 [Example 5-2, 1′-({5-Chloro-1-[6-(methylsulfonyl)pyridin-2-yl]-1H-benzimidazol-2-yl}methyl)spiro[cyclopropane-1,3′-pyrrolo[2,3-c]pyridin]-2′(1′H)-one]
18 | 7.72 | Cc1cc(-n2c(CN3C(=O)C4(CC4)c4ccncc43)nc3cc(Cl)ccc32)cc(S(C)(=O)=O)c1 [Example 5-3, 1′-({5-Chloro-1-[3-methyl-5-(methylsulfonyl)phenyl]-1H-benzimidazol-2-yl}methyl)spiro[cyclopropane-1,3′-pyrrolo[2,3-c]pyridin]-2′(1′H)-one]
19 | 8.22 | O=C(O)c1ccc(-n2c(CN3C(=O)C4(CC4)c4ccncc43)nc3cc(Cl)ccc32)cc1 [Example 6-1, 4-{5-Chloro-2-[(2′-oxospiro[cyclopropane-1,3′-pyrrolo[2,3-c]pyridin]-1′(2′H)-yl)methyl]-1H-benzimidazol-1-yl}benzoic acid]
20 | 6.29 | O=C(O)c1cccc(-n2c(CN3C(=O)C4(CC4)c4ccncc43)nc3cc(Cl)ccc32)c1 [Example 6-2, 3-{5-Chloro-2-[(2′-oxospiro[cyclopropane-1,3′-pyrrolo[2,3-c]pyridin]-1′(2′H)-yl)methyl]-1H-benzimidazol-1-yl}benzoic acid]
21 | 7.30 | O=C(O)c1ccc(-n2c(CN3C(=O)C4(CC4)c4ccc(F)cc43)nc3cc(Cl)ccc32)cc1 [Example 6-3, 4-{5-Chloro-2-[(6′-fluoro-2′-oxospiro[cyclopropane-1,3′-indol]-1′(2′H)-yl)methyl]-1H-benzimidazol-1-yl}benzoic acid]
22 | 7.60 | CS(=O)(=O)c1ccc(-c2c(CN3C(=O)C4(CC4)c4ccncc43)[nH]c3cc(Cl)ccc23)cc1 [Example 9-1, 1′-({6-Chloro-3-[4-(methylsulfonyl)phenyl]-1H-indol-2-yl}methyl)spiro[cyclopropane-1,3′-pyrrolo[2,3-c]pyridin]-2′(1′H)-one]
23 | 7.54 | CS(=O)(=O)c1cccc(-c2c(CN3C(=O)C4(CC4)c4ccncc43)[nH]c3cc(Cl)ccc23)c1 [Example 9-2, 1′-({6-Chloro-3-[3-(methylsulfonyl)phenyl]-1H-indol-2-yl}methyl)spiro[cyclopropane-1,3′-pyrrolo[2,3-c]pyridin]-2′(1′H)-one]

System: RSV infection
Test: not given
Settings: intramuscularly 15 mg/kg once a month for the RSV season, selected infants; cited from earlier work

Row | Molecule | reduction of hospitalization rate caused by RSV infection
24 | palivizumab: a humanized monoclonal antibody against RSV fusion (F) protein approved for prophylaxis in high-risk infants | 45-55%
